pIC50: −log10 of the molar value.
Test system: Plasmodium berghei
Assay: Luciferase/luciferin-expressing antifolate-resistant parasites were used to infect a culture of HepG2 cells that were pre-incubated with compounds. Infected hepatocytes emit light due to the luciferase reaction. Assay results are presented as the percent inhibition of light emission compared to control. […]
Type: functional
Details: sporozoite; for IC90: read-out: LUCIFERASE INFECTION ASSAY - IC90
[1] = read-out: LUCIFERASE INFECTION ASSAY - IC50

| Compound | IC90 [µM] | also measured |
| --- | --- | --- |
| Cc1ccc(N(CC(=O)Nc2ccc(Cl)cc2)S(C)(=O)=O)cc1Cl | > 8.52 | pIC50 (HEPG2TOX_HILL_SLOPE 0.0682, HEPG2TOX_R_SQUARED 0.0747, PBLUC_HILL_SLOPE 6.57, PBLUC_R_SQUARED 0.017, read-out: LUCIFERASE INFECTION ASSAY - IC50): < 5.07 |
| Cc1[nH]n(-c2cccc(C(F)(F)F)c2)c(=O)c1-c1cccc(Cl)c1 | > 9.36 | pIC50 (HEPG2TOX_HILL_SLOPE 5.8, HEPG2TOX_R_SQUARED 0.928, PBLUC_HILL_SLOPE 3.11, PBLUC_R_SQUARED 0.843, read-out: LUCIFERASE INFECTION ASSAY - IC50): 5.20 |
| CC(Sc1nc2ccccc2c(=O)n1C)C(=O)Nc1cc([N+](=O)[O-])ccc1Cl (stereo not given) | > 10 | pIC50 (HEPG2TOX_HILL_SLOPE 7.72, HEPG2TOX_R_SQUARED 0.92, read-out: LUCIFERASE INFECTION ASSAY - IC50): < 5.00 |
| Cc1cc(C)c(-c2csc(NC(=O)C3CC4CCCC(C3)C4=O)n2)c(C)c1 (stereo not given) | > 10 | pIC50 (HEPG2TOX_HILL_SLOPE 3.24, HEPG2TOX_R_SQUARED 0.936, PBLUC_HILL_SLOPE 1.48, PBLUC_R_SQUARED 0.583, read-out: LUCIFERASE INFECTION ASSAY - IC50): 5.53 |
| Cc1ccc(NC(=S)NC2CCCCCCCCCCC2)cc1Cl | 8.43 | pIC50 (HEPG2TOX_HILL_SLOPE 11.3, HEPG2TOX_R_SQUARED 0.761, PBLUC_HILL_SLOPE 19.1, PBLUC_R_SQUARED 0.333, read-out: LUCIFERASE INFECTION ASSAY - IC50): 5.12 |
| Cc1cc(C(=O)Cn2cnc3ccccc3c2=O)c(C)n1-c1ccccc1 | > 10 | pIC50 (HEPG2TOX_HILL_SLOPE 1.21, HEPG2TOX_R_SQUARED 0.806, PBLUC_HILL_SLOPE 1.3, PBLUC_R_SQUARED 0.604, read-out: LUCIFERASE INFECTION ASSAY - IC50): 5.53 |
| CC1CCc2nc3ccccc3c(C(=O)OCCOc3ccccc3Cl)c2C1 (stereo not given) | > 10 | pIC50 [1]: < 5.00 |
| CCn1c(SCC(=O)N2N=C(c3ccco3)CC2c2ccco2)nc2ccsc2c1=O (stereo not given) | > 10 | pIC50 (FFLUC_HILL_SLOPE 1.6, FFLUC_R_SQUARED 0.281, read-out: LUCIFERASE INFECTION ASSAY - IC50): < 5.00 |
| FC(F)(F)c1cccc(-c2ccc3ncc(-c4ccncc4)n3n2)c1 | 1.31 | pIC50 (HEPG2TOX_HILL_SLOPE 8.22, HEPG2TOX_R_SQUARED 0.275, PBLUC_HILL_SLOPE 7.22, PBLUC_R_SQUARED 0.51, read-out: LUCIFERASE INFECTION ASSAY - IC50): 6.01 |
| COc1ccc(CNc2nc(C)nc3scc(-c4cccs4)c23)cn1 | > 10 | pIC50 (HEPG2TOX_HILL_SLOPE 2.96, HEPG2TOX_R_SQUARED 0.967, read-out: LUCIFERASE INFECTION ASSAY - IC50): < 5.00 |
| CC(NC(C)c1ccc(Cl)cc1)C(=O)Nc1sccc1C(N)=O (stereo not given) | > 10 | pIC50 (PBLUC_HILL_SLOPE 1.06, PBLUC_R_SQUARED 0.69, read-out: LUCIFERASE INFECTION ASSAY - IC50): 5.67 |
| Cc1cccc(C)c1NC(=S)NC1CC(C)CC(C)(C)C1 (stereo not given) | 5.5 | pIC50 (HEPG2TOX_HILL_SLOPE 2.42, HEPG2TOX_R_SQUARED 0.462, PBLUC_HILL_SLOPE 8.54, PBLUC_R_SQUARED 0.744, read-out: LUCIFERASE INFECTION ASSAY - IC50): 5.37 |
| O=C(Nc1cccc2c[nH]nc12)c1ccc([N+](=O)[O-])s1 | 7.56 | pIC50 (HEPG2TOX_HILL_SLOPE 0.563, HEPG2TOX_R_SQUARED 0.653, PBLUC_HILL_SLOPE 2.36, PBLUC_R_SQUARED 0.303, read-out: LUCIFERASE INFECTION ASSAY - IC50): 5.53 |
| Cc1cc(O)nc(N/N=C/c2c(C)nn(-c3ccccc3Cl)c2Cl)n1 | 2.19 | pIC50 (PBLUC_HILL_SLOPE 2.61, PBLUC_R_SQUARED 0.512, read-out: LUCIFERASE INFECTION ASSAY - IC50): 6.03 |
| COCCCN=C(S)NNC(=O)c1ccc(C(C)(C)C)cc1 | > 10.2 | pIC50 (PBLUC_HILL_SLOPE 2.41, PBLUC_R_SQUARED 0.0684, read-out: LUCIFERASE INFECTION ASSAY - IC50): 5.06 |
| CN(C)CCn1c(=O)n(Cc2ccccc2)c(=O)c2c3c(sc21)CCCCC3 | > 8.3 | pIC50 (PBLUC_HILL_SLOPE 10.5, PBLUC_R_SQUARED 0.0293, read-out: LUCIFERASE INFECTION ASSAY - IC50): 5.10 |
| CNc1nc2cnc(Nc3ccccc3)cc2n1Cc1ccco1 | > 10 | pIC50 (HEPG2TOX_HILL_SLOPE 3.53, HEPG2TOX_R_SQUARED 0.949, PBLUC_HILL_SLOPE 2.74, PBLUC_R_SQUARED 0.404, read-out: LUCIFERASE INFECTION ASSAY - IC50): 5.31 |
| O=C(Nc1ccccc1O)c1ccccc1NS(=O)(=O)c1ccc(Cl)s1 | 7.2 | pIC50 (HEPG2TOX_HILL_SLOPE 3.8, HEPG2TOX_R_SQUARED 0.66, PBLUC_HILL_SLOPE 5.25, PBLUC_R_SQUARED 0.554, read-out: LUCIFERASE INFECTION ASSAY - IC50): 5.32 |
| CC(=O)Nc1cnc(-c2ccccc2N(C)C)cn1 | > 12.9 | pIC50 [1]: < 4.89 |
| Cn1cc(-c2cnc3cnc(-c4ccncc4)cn23)cn1 | > 11.9 | pIC50 (HEPG2TOX_HILL_SLOPE 1.93, HEPG2TOX_R_SQUARED 0.473, PBLUC_HILL_SLOPE 0.98, PBLUC_R_SQUARED 0.306, read-out: LUCIFERASE INFECTION ASSAY - IC50): 5.00 |

| Compound | IC90 [µM] | also measured |
| --- | --- | --- |
| O=C(Nc1cc(C(F)(F)F)cc(C(F)(F)F)c1)Nc1cc(C(F)(F)F)cc(C(F)(F)F)c1 | > 6.81 | pIC50 [1]: < 5.17 |
| CCC(C)NC(=O)c1c(NC(=O)c2ccc(Cl)cc2)nc2ccc(C)cn12 (stereo not given) | 3.02 | pIC50 [1]: 5.59 |
| Nc1nc(CSc2nccc(C(F)(F)F)n2)nc(Nc2ccc(F)cc2)n1 | > 10 | pIC50 [1]: < 5.00 |
| CCOC(=O)c1c(C)[nH]c(C(=O)COC(=O)c2ccc(CO)cc2)c1C | > 10 | pIC50 [1]: < 5.00 |
| COc1cccc(-c2cc3c(Nc4cccc(C(C)C)c4)nccc3[nH]2)c1 | 2.26 | pIC50 (HEPG2TOX_HILL_SLOPE 2.2, HEPG2TOX_R_SQUARED 0.959, PBLUC_HILL_SLOPE 4.36, PBLUC_R_SQUARED 0.354, read-out: LUCIFERASE INFECTION ASSAY - IC50): 5.87 |
| CC(C)Cc1nc2oc3c(NCCN(C)C)ncnc3c2c2c1COC(C)(C)C2 | > 8.3 | pIC50 (PBLUC_HILL_SLOPE 11.6, PBLUC_R_SQUARED 0.0696, read-out: LUCIFERASE INFECTION ASSAY - IC50): 5.12 |
| O=C(COc1ccccc1C(=O)Nc1ccccc1)NC(c1ccc(F)cc1)c1cccs1 (stereo not given) | > 10 | pIC50 (FFLUC_HILL_SLOPE 12.2, FFLUC_R_SQUARED 0.17, PBLUC_HILL_SLOPE 2.56, PBLUC_R_SQUARED 0.393, read-out: LUCIFERASE INFECTION ASSAY - IC50): 5.15 |
| C/C=C/c1ccc(OCC(=O)NCc2ccc(S(N)(=O)=O)cc2)c(OC)c1 | > 10 | pIC50 [1]: < 5.00 |
| COc1ccc(Nc2nnc(SCc3cn4c(C)cccc4n3)s2)cc1 | 3.76 | pIC50 (HEPG2TOX_HILL_SLOPE 1.62, HEPG2TOX_R_SQUARED 0.963, PBLUC_HILL_SLOPE 37.7, PBLUC_R_SQUARED 0.0792, read-out: LUCIFERASE INFECTION ASSAY - IC50): 5.45 |
| N=C1NC(=Nc2ccc(Cl)c(Cl)c2)c2ccccc21 | > 10 | pIC50 (PBLUC_HILL_SLOPE 9.86, PBLUC_R_SQUARED 0.113, read-out: LUCIFERASE INFECTION ASSAY - IC50): 5.02 |
| Cc1cccc(C)c1Nc1nnc(C(O)c2ccc(F)c(Cl)c2)s1 (stereo not given) | > 10 | pIC50 (PBLUC_HILL_SLOPE 1.46, PBLUC_R_SQUARED 0.342, read-out: LUCIFERASE INFECTION ASSAY - IC50): 5.53 |
| N#Cc1c(-c2ccccc2)c(-c2ccccc2)n(C2CCCCC2)c1NC(=O)CCN1C(=O)c2ccccc2C1=O | > 10 | pIC50 (FFLUC_HILL_SLOPE 12.4, FFLUC_R_SQUARED 0.654, read-out: LUCIFERASE INFECTION ASSAY - IC50): < 5.00 |
| Cc1nccc(-c2cccc(N/N=C(\C#N)S(=O)(=O)c3ccccn3)c2)n1 | 8.23 | pIC50 (HEPG2TOX_HILL_SLOPE 1.84, HEPG2TOX_R_SQUARED 0.959, PBLUC_HILL_SLOPE 1.78, PBLUC_R_SQUARED 0.641, read-out: LUCIFERASE INFECTION ASSAY - IC50): 5.62 |
| CCOC(=O)c1sc(NC(=O)Nc2ccc([N+](=O)[O-])cc2)cc1C | 4.91 | pIC50 (HEPG2TOX_HILL_SLOPE 2.1, HEPG2TOX_R_SQUARED 0.922, PBLUC_HILL_SLOPE 2.24, PBLUC_R_SQUARED 0.786, read-out: LUCIFERASE INFECTION ASSAY - IC50): 5.74 |
| COc1ccc2c(Cn3ncc(Cl)c(Cl)c3=O)cc(=O)oc2c1 | 7.19 | pIC50 [1]: 5.38 |
| CCCCn1c(N)c(-c2nc(CC(C)(C)C)c(C(=O)c3ccc(Br)s3)s2)c(=O)n(C)c1=O | > 10 | pIC50 (PBLUC_HILL_SLOPE 0.7, PBLUC_R_SQUARED 0.683, read-out: LUCIFERASE INFECTION ASSAY - IC50): 5.56 |
| CC(C)N(C(=O)CSc1ccc(F)c(F)c1)c1ccc(Nc2ccccc2)cc1 | 6.35 | pIC50 (PBLUC_HILL_SLOPE 46.2, PBLUC_R_SQUARED 0.0491, read-out: LUCIFERASE INFECTION ASSAY - IC50): 5.22 |
| CC(=O)c1sc(SCCS(=O)(=O)c2ccc(Cl)cc2)c2c1CCCC2=O | > 7.69 | pIC50 (HEPG2TOX_HILL_SLOPE 4.99, HEPG2TOX_R_SQUARED 0.387, PBLUC_HILL_SLOPE 14.8, PBLUC_R_SQUARED 0.11, read-out: LUCIFERASE INFECTION ASSAY - IC50): < 5.11 |
| CN1N=C2c3ccccc3CCCC2C1c1ccc(C(C)(C)C)cc1 (stereo not given) | 3.51 | pIC50 (PBLUC_HILL_SLOPE 38, PBLUC_R_SQUARED 0.372, read-out: LUCIFERASE INFECTION ASSAY - IC50): 5.48 |
| CN(C(=O)CCN1C(=O)CCC1=O)c1ccccc1 | > 10 | pIC50 [1]: < 5.00 |
